Measurements as given in ChEMBL document CHEMBL1137895, “Synthesis and activity of 2-[4-(4-[3H]-2-cyanophenyl)piperazinyl]-N-(2,4,6-[3H]3-3-methylphenyl)acetamide: a selective dopamine D4 receptor agonist and radioligand” (Bioorg Med Chem Lett, 2004).

How the values were obtained:
D(4) dopamine receptor [1] = target: T1, D(4) dopamine receptor (Homo sapiens, UniProt P21917); experiment: In vitro ability to inhibit [3H]6b binding to human Dopamine receptor D4.4
T1 sequence (P21917 whole entry): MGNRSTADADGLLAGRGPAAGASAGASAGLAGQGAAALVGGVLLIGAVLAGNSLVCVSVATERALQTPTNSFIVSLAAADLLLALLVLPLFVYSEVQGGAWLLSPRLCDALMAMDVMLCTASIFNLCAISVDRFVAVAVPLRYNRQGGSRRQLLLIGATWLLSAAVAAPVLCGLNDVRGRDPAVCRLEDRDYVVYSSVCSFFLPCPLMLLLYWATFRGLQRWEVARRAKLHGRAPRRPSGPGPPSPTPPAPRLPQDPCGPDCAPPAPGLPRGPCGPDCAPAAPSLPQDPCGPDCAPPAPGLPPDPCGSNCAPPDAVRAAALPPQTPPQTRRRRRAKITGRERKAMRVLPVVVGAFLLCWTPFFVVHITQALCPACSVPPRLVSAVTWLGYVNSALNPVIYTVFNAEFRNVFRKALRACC

D(4) dopamine receptor [2] = target: T1, D(4) dopamine receptor; experiment: In vitro ability to inhibit [3H]spiperone binding to human Dopamine receptor D4.4
D(4) dopamine receptor [3] = target: T1, D(4) dopamine receptor; experiment: Agonist activity was calculated in calcium flux assay using HEK293 cells co-transfected with human Dopamine receptor D4.4 and Galphaqo5; type: functional, cell-based
D(4) dopamine receptor [4] = target: T1, D(4) dopamine receptor; experiment: In vitro ability to inhibit [3H]spiperone binding to human Dopamine receptor D4.4 allele
[5] = target: T2, D(4) dopamine receptor (Homo sapiens) (UniProt P21917); experiment: Efficacy in calcium flux assay using HEK293 cells co-transfected with human Dopamine receptor D4.4 and G-alpha-qo5 relative to 10 uM dopamine; type: functional, cell-based
T2 sequence (whole entry): T1 sequence (P21917 whole entry)

SMILES | Ki (D(4) dopamine receptor [1]) | Ki (D(4) dopamine receptor [2]) | EC50 (D(4) dopamine receptor [3]) | Ki (D(4) dopamine receptor [4]) | E [5]
COc1cccc(N2CCN(CC(=O)Nc3cccc(C)c3)CC2)c1 | 0.0391 µM | 0.046 µM | > 10 µM | – | –
Cc1cccc(NC(=O)CN2CCN(c3ccc(F)cc3)CC2)c1 | 0.0907 µM | 0.0619 µM | > 10 µM | – | –
COc1ccc(N2CCN(CC(=O)Nc3cccc(C)c3)CC2)cc1 | 0.0889 µM | 0.101 µM | > 10 µM | – | –
Cc1cc(NC(=O)CN2CCN(c3ccc(Br)cc3C#N)CC2)ccc1Br | 0.014 µM | 0.0542 µM | > 10 µM | – | –
COc1ccccc1N1CCN(CC(=O)Nc2cccc(C)c2)CC1 | 0.0018 µM | – | 0.0268 µM | 0.0007 µM | 60%
